Key:
[1] = Particulate matter in water solutions of disodium clodronate and cholecalciferol with organic solvents; assay type: physicochemical; design: key: *: opalescent; **: turbid; ***: precipitate; details: disodium clodronate 100 mg/3ml, cholecalciferol 0.35mg/3ml
Protocol: (§1) In order to assess the degree of water solubilization of bisphosphonates and vitamin D by addition of variable amounts of benzyl alcohol and other water mixable organic solvents, 2 mother solutions at concentration of 100 mg disodium clodronate or 5 mg zoledronic acid in 2 ml water for injection, examples of respectively high and low dose bisphosphonates, were prepared and buffered with sodium bicarbonate to pH 6.5.
(§2) Two-ml samples of both solutions with the two bisphosphonates mentioned above were then diluted with water to approx. 3 ml (3 samples: more precisely 2997 µl, 2991µl, and 2970 µl), to 2.7 ml (1 sample) and to 2.4 ml (1 sample).A mother solution containing cholecalciferol in benzyl alcohol or other water mixable organic solvents in a ratio of 0.35 mg : 3.0 mg respectively (11.67% w/w) was also prepared and 2 series of 5 samples of 3.35 mg of it were taken and kept as such (1 sample) or diluted with 6.0 mg, 27.0 mg, 297.0 and 597.0 mg respectively of the same solvent (4 samples).The 5 cholecalciferol solution samples were then added, under slow stirring, to the 5 solution samples of each bisphosphonate in the order, so as to give mixtures with solvent concentration of 0.1, 0.3, 1.0, 10.0 and 20.0% (w/v), left to stand for 10 minutes and then examined according to the microscopic particle count test or visually (an instrumental particle counter was unnecessary).
Table Va: particulate matter in water solutions of disodium clodronate 100 mg/3ml and cholecalciferol 0.35mg / 3ml, containing different % concentrations (w/v) of organic solvents.

[2] = Particulate matter in water solutions of zoledronic acid and cholecalciferol with organic solvents; assay type: physicochemical; design: key: *: opalescent; **: turbid; ***: precipitate; details: zoledronic acid 5.0 mg/3ml, cholecalciferol 0.35 mg/3ml
Protocol: as §1, §2
Table Vb: particulate matter in water solutions of zoledronic acid 5.0 mg/3ml and cholecalciferol 0.35 mg / 3ml, containing different % concentrations (w/v) of organic solvents.

[3] = 10 % (w/v) solvent, count or visual symbol
[4] = 20 % (w/v) solvent, visual symbol
[5] = 10.0 % (w/v) solvent, count or visual symbol
[6] = 20.0 % (w/v) solvent, visual symbol

| Particulate matter ≥ 10µm per ml ([1]; 0.1 % (w/v) solvent) [per ml] | Particulate matter ≥ 10µm per ml ([1]; 0.3 % (w/v) solvent) [per ml] | Particulate matter ≥ 10µm per ml ([1]; 1.0 % (w/v) solvent) [per ml] | Particulate matter ≥ 10µm per ml [1, 3] | Particulate matter ≥ 10µm per ml [1, 4] | Compound | Particulate matter ≥ 10µm per ml ([2]; 0.1 % (w/v) solvent) [per ml] | Particulate matter ≥ 10µm per ml ([2]; 0.3 % (w/v) solvent) [per ml] | Particulate matter ≥ 10µm per ml ([2]; 1.0 % (w/v) solvent) [per ml] | Particulate matter ≥ 10µm per ml [2, 5] | Particulate matter ≥ 10µm per ml [2, 6] |
| --- | --- | --- | --- | --- | --- | --- | --- | --- | --- | --- |
| 75 | 23 | 48 | ** | *** | CCO [Ethanol] | 68 | 22 | 16 | * | ** |
| 83 | 74 | 56 | ** | *** | Sorbitane monoleate [Sorbitane monoleate (SPAN® 80)] |  |  |  |  |  |

| Compound | Particulate matter ≥ 10µm per ml ([1]; 0.1 % (w/v) solvent) [per ml] | Particulate matter ≥ 10µm per ml ([1]; 0.3 % (w/v) solvent) [per ml] | Particulate matter ≥ 10µm per ml ([1]; 1.0 % (w/v) solvent) [per ml] | Particulate matter ≥ 10µm per ml [1, 3] | Particulate matter ≥ 10µm per ml [1, 4] | Particulate matter ≥ 10µm per ml ([2]; 0.1 % (w/v) solvent) [per ml] | Particulate matter ≥ 10µm per ml ([2]; 0.3 % (w/v) solvent) [per ml] | Particulate matter ≥ 10µm per ml ([2]; 1.0 % (w/v) solvent) [per ml] | Particulate matter ≥ 10µm per ml [2, 5] | Particulate matter ≥ 10µm per ml [2, 6] |
| --- | --- | --- | --- | --- | --- | --- | --- | --- | --- | --- |
| OCc1ccccc1 [Benzyl alcohol] | 8 | 0 | 0 | 0 per ml | * | 10 | 0 | 0 | 0 per ml | * |
